# Assay results: patent US20140315956A1, “SMALL MOLECULE INHIBITORS OF IL-6 AND USES THEREOF” (NATIONWIDE CHILDREN'S HOSPITAL, priority 2011, published 2014)
# pKd: −log10 of the molar value. “Also recorded” adds a separate entry of the source.
# Legend:
# [1] = tested on: Stat3 phosphorylation (p-Tyr705) induced by IL-6 in LNCaP prostate cancer cells; assay: IL-6 induced Stat3 phosphorylation in LNCaP cells, Western blot; assay type: cell-based; settings: IL-6 12.5 ng/ml 30 min, Western blot
# Experimental: LNCaP prostate cancer cells were acquired from American Type Culture Collection. Cells were maintained in RPMI 1640 medium, 1× with 4.5 g/L L-glutamine, supplemented with 10% FBS, 100 U/ml penicillin and […] streptomycin (Invitrogen), in a humidified atmosphere of 5% CO2 at 37° C.
# LNCaP prostate cancer cells were seeded in T75 flasks, grown to 50% confluence and serum-starved the following night. The cells were left untreated or were treated with MDL-A (100-400 μM), 1, 2 (5-40 μM) or DMSO in the absence of FBS. After 4 hours, the cells were stimulated with 12.5 ng/ml IL-6 (Cell Signaling Technology). The cells were then harvested at 30 minutes and washed with PBS and lysed in cold M-PER lysis buffer (Pierce) containing protease inhibitors (Sigma) and phosphatase inhibitors (Roche). Lysates were centrifuged at 14,000 rpm for 15 minutes at 4° C. and supernatants were collected and stored at −20° C. until further use.
# Cell lysates were assayed for their protein concentrations using the Bradford protein assay reagent (Pierce), using BSA (Fisher Scientific) as the standard. Lysate samples were adjusted for the same protein concentration, approximately 5 μg of sample protein was loaded into each of the appropriate lanes. Protein samples were separated by SDS-PAGE and electrotransferred to PVDF membranes. The membranes were washed and blocked with 5% BSA in TBST (60 mM Tris-base, 120 mM NaCl, 0.1% Tween-20) for at least one hour and incubated with anti-phospho-STAT3 (p-Tyr705) antibody, anti-STAT3 antibody or anti-GAPDH antibody (all from Cell Signaling Technology) in 5% BSA in TBST overnight at 4° C. Blots were then washed three times in TBST and incubated with a horseradish peroxidase-conjugated goat anti-rabbit IgG secondary antibody (Cell Signaling Technology) in 5% BSA in TBST for 1 hour at room temperature. The bound antibody was detected using Enhanced Chemiluminescence detection reagents (Pierce) according to the manufacturer's instructions and chemiluminescence visualized using ECL Hyperfilm (Amersham).
# GP130 = molecular target: T1, GP130 (Homo sapiens, UniProt P40189); settings: reported by Saleh et al.; read-out: GP130 binding affinity KD; cited from earlier work
# T1 sequence (P40189 23-918): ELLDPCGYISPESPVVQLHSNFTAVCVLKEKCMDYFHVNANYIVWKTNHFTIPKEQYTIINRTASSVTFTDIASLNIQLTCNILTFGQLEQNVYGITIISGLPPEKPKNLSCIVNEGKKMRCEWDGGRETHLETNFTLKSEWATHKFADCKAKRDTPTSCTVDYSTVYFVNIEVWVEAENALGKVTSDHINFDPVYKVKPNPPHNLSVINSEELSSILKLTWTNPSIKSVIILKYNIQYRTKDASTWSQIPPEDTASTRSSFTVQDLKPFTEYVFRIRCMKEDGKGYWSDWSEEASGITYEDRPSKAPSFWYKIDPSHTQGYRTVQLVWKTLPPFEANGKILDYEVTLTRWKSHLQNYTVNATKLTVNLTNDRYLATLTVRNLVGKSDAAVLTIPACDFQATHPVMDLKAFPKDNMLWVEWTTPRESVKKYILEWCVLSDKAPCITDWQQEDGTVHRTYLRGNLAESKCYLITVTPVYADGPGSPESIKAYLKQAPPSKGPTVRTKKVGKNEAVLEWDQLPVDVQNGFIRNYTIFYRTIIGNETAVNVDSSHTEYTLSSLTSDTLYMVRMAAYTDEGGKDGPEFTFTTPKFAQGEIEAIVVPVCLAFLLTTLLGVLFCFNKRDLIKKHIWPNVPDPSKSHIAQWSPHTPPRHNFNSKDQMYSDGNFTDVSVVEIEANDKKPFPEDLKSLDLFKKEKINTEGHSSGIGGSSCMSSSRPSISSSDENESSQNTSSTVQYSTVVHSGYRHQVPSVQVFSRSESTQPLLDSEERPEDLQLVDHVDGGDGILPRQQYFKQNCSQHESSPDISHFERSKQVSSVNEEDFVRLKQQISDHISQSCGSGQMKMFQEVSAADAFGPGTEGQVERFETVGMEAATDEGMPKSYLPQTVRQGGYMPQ
# [2] = tested on: IL-6-dependent murine hepatoma cell line MH60; settings: Omura and coworkers; cited from earlier work
smiles,measurement,setting,value
"CCCCC1=C(C)C(=O)[C@@](C)(CN2c3ccccc3[C@]3(O)CCO[C@H]23)C1=O [MDL-A, (+)-Madindoline A, reference compound]",inhibition of Stat3 phosphorylation induced by IL6,[1],inhibit Stat3 phosphorylation; also recorded: dose dependent inhibition
same,pKd,GP130,3.54
same,growth of IL-6-dependent MH60 cells,[2],specifically inhibited the growth
